In patent US9018218B2 (priority 2010, dated 2015):
Where two headings read alike, the source gives them in different places.

Key:
wheat powdery mildew = experiment: fungicidal activity in vivo, wheat powdery mildew on wheat seedling leaves; conditions: spray, investigated after 7 days
Experimental: (§1) The procedure of determination of fungicidal activity in vivo is as follow:
The compounds of the present invention were diluted to given concentrations and sprayed on the leaves of wheat seedling at the same two-leaf stage, meanwhile, water were set as the blank control, three replicates were set for each treatment. Wheat powdery mildew spore suspension were inoculated on the second day after treatment, and then placed in greenhouse (25±2° C.) and routine management was conducted. The test results were investigated after 7 days, disease grading refers to the national standard of the People's Republic of China [The test criteria of pesticide field trial], the control effect was calculated by disease index.

cucumber downy mildew = experiment: fungicidal activity in vivo, cucumber downy mildew on cucumber seedling leaves; conditions: spray, investigated after 5 days
Experimental: as §1
The compounds of the present invention were diluted to given concentrations and sprayed on the leaves of cucumber seedling at the same stage, on which growing point were cut off and two euphyllas were kept meanwhile, water were set as the blank control, three replicates were set for each treatment. Cucumber downy mildew spore suspension were inoculated on the second day after treatment, then, the plants were placed in a chamber (temperature: day 25° C., and night 20° C., relative humidity 95 to 100%), and then placed in greenhouse (25±2° C.) 24 hours later and routine management was conducted. The test results were investigated after 5 days, disease grading refers to the national standard of the People's Republic of China [The test criteria of pesticide field trial], the control effect was calculated by disease index.

wheat rust = conditions: in vivo
rice blast = experiment: microbe, parasite or virus in culture; assay type: cell-based; conditions: for rice blast inhibition rate %: in vitro spore germination; for inhibition at 25 µg/mL / inhibition at 2.8 µg/mL / inhibition at 8.3 µg/mL: Pyricularia oryzae, read-out: rice blast inhibition rate %
[1] = 400 mg/L, spray, investigated after 7 days
[2] = 100 mg/L, spray, investigated after 7 days

SMILES	wheat powdery mildew control % (wheat powdery mildew; 50 mg/L)	wheat powdery mildew control % (wheat powdery mildew; 100 mg/L)	wheat powdery mildew control % (wheat powdery mildew; 400 mg/L)	cucumber downy mildew control % (cucumber downy mildew; 50 mg/L)	cucumber downy mildew control % (cucumber downy mildew; 100 mg/L)	cucumber downy mildew control % (cucumber downy mildew; 400 mg/L)	wheat rust control % (wheat rust; [1])	wheat rust control % (wheat rust; [2])	rice blast inhibition rate % (rice blast; 2.8 mg/L)	rice blast inhibition rate % (rice blast; 8.3 mg/L)	rice blast inhibition rate % (rice blast; 25 mg/L)	wheat rust control % (wheat rust; 50 mg/L, spray, investigated after 7 days)	wheat rust control % (wheat rust)	inhibition at 25 µg/mL (rice blast)	melting point	inhibition at 2.8 µg/mL (rice blast)	inhibition at 8.3 µg/mL (rice blast)
CCCCc1c(C)nc(Nc2ccccc2)nc1OC(=O)OC [Compound 1]	98%	100%	100%	0%	20%	95%	–	–	–	–	–	–	–	–	–	–	–
CCCCc1c(C)nc(Nc2ccc(OC(F)(F)F)cc2)nc1OC(=O)OC [Compound 13]	–	–	95%	–	–	30%	0%	–	–	–	–	–	–	–	–	–	–
CCCCc1c(C)nc(Nc2ccccc2)nc1OC(=O)OC(C)C [Compound 46]	98%	100%	100%	–	10%	95%	100%	0%	80%	100%	100%	–	–	–	–	–	–
CCCCc1c(C)nc(Nc2ccc(OC(F)(F)F)cc2)nc1OC(=O)OC(C)C [Compound 53]	–	–	50%	–	–	95%	0%	–	–	–	50%	–	–	–	–	–	–
CCCCc1c(C)nc(Nc2ccccc2)nc1OC(=O)OCC [Compound 75]	50%	98%	95%	–	30%	95%	98%	60%	–	–	50%	30%	–	–	–	–	–
CCCCOC(=O)Oc1nc(Nc2ccccc2)nc(C)c1CCCC [Compound 101]	70%	95%	100%	–	–	70%	98%	0%	–	–	50%	–	–	–	–	–	–
CCCCc1c(C)nc(Nc2ccccc2)nc1OC(=O)OCc1ccccc1 [Compound 156]	–	80%	100%	–	–	30%	–	–	–	–	–	–	0%	80%	–	–	–
CCCCc1c(C)nc(Nc2ccccc2)nc1OC(=O)OC(C)c1ccccc1 (stereo not drawn) [Compound 173]	–	80%	100%	–	–	50%	0%	–	–	–	50%	–	–	–	–	–	–
Cc1nc(Nc2ccccc2)nc(OC(=O)OC(C)C)c1C [Compound 253]	–	–	0%	–	–	20%	95%	–	50%	80%	100%	–	–	–	–	–	–
Cc1cc(OC(=O)OC(C)C)nc(Nc2ccccc2)n1 [Compound 270]	–	–	0%	–	–	0%	60%	–	–	0%	100%	–	–	–	–	–	–
CC(C)OC(=O)Oc1nc(Nc2ccccc2)nc2c1CCC2 [Compound 393]	–	–	0%	–	–	0%	–	–	–	–	–	–	70%	100%	124 to 126 °C	0%	80%
CC(C)OC(=O)Oc1nc(Nc2ccccc2)nc2c1CCCC2 [Compound 427]	–	–	0%	–	–	0%	98%	–	–	80%	100%	–	–	–	–	–	–
CC(C)OC(=O)Oc1nc(Nc2ccc(F)c(F)c2F)nc2c1CCCC2 [Compound 443]	–	–	0%	–	–	90%	–	–	–	–	–	–	0%	100%	124 to 126 °C	50%	100%
CCCCc1c(C)nc(N(C)C)nc1OC(=O)OCC [Compound K1, reference compound]	–	0%	100%	–	–	0%	–	–	–	–	–	–	0%	100%	–	0%	80%
COC(=O)Oc1cc(C2CC2)nc(Nc2ccccc2)n1 [Compound K2, reference compound]	–	–	0%	–	–	0%	–	–	–	–	–	–	0%	80%	–	–	–
